According to US20230312587A1, “PTERIDINONE COMPOUNDS AND USES THEREOF” (Vertex Pharmaceutical Incorporated, priority 2018, published 2023):
Like-named read-outs stand apart in the source and are kept apart here.

Test system: β-catenin-TCF-mediated reporter transcription activity in Colo 205 cells
Assay: Colo 205 reporter assay (TCF/LEF luciferase)
Assay type: cell-based
Settings: Colo 205 TCF/LEF luciferase reporter, read-out: TCF reporter Colo205 IC50
Procedure, shortened: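 Luciferase signal from a TCF/LEF-driven reporter, stably integrated in Colo 205 colon cancer cells, was measured 5 h after compound addition.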

[1] = Homo sapiens, COLO 205, 5 h, five hours after addition of compound
[2] = Homo sapiens, COLO 205, 5 h, R-isomer at C2 (corresponding to C2 S-isomer), 5 h

| Compound | IC50 [1] [nM] | also measured |
| --- | --- | --- |
| Cc1nc(NCc2cnn(Cc3cn(C)nc3C(F)(F)F)c2)nc2c1NC(=O)[C@H](C)N2C [Compound 159, (7S)-4,7,8-trimethyl-2-(((1-((1-methyl-3-(trifluoromethyl)-1H-pyrazol-4-yl)methyl)-1H-pyrazol-4-yl)methyl)amino)-7,8-dihydropteridin-6(5H)-one] | 300 to 1000 |  |
| Cc1nc(NCc2cnn(Cc3ccc(OC(C)C)nc3)c2)nc2c1N(C)C(=O)[C@H](C)N2C [Compound 129, (7S)-2-(((1-((6-isopropoxypyridin-3-yl)methyl)-1H-pyrazol-4-yl)methyl)amino)-4,5,7,8-tetramethyl-7,8-dihydropteridin-6(5H)-one] | 300 to 1000 |  |
| COC1(C2C(=O)Nc3c(C)nc(N[C@H]4C[C@@H](Cn5nccc5C(F)(F)F)C4)nc3N2C)CC1 (relative stereo) [Compound 676, 7-(1-methoxycyclopropyl)-4,8-dimethyl-2-((cis-3-((5-(trifluoromethyl)-1H-pyrazol-1-yl)methyl)cyclobutyl)amino)-7,8-dihydropteridin-6(5H)-one] | < 300 |  |
| Cc1nc(NCc2cnn(Cc3cc(C(F)(F)F)nn3C)c2)nc2c1NC(=O)[C@@H](C1CC1)N2C [Compound I-1498] |  | IC50 [2]: 300 to 1000 nM |
| Cc1nc(NCc2cnn(C[C@@H]3CCCN3c3cc(F)cc(F)c3)c2)nc2c1NC(=O)[C@H](C)N2C [Compound 219, (7S)-2-(((1-(((S)-1-(3,5-difluorophenyl)pyrrolidin-2-yl)methyl)-1H-pyrazol-4-yl)methyl)amino)-4,7,8-trimethyl-7,8-dihydropteridin-6(5H)-one] | < 300 |  |
| Cc1nc(NCc2cnn(Cc3ccc(C(F)(F)F)nc3)c2)nc2c1NC(=O)[C@@H](C1CC1)N2C [Compound I-1639] |  | IC50 [2]: 1000 to 5000 nM |
| Cc1nc(NCc2cnn(Cc3ccc(C(F)(F)F)nc3)c2)nc2c1NC(=O)C1(CCOC1)N2C (stereo not shown) [Compound 662, 4′,8′-dimethyl-2′-(((1-((6-(trifluoromethyl)pyridin-3-yl)methyl)-1H-pyrazol-4-yl)methyl)amino)-4,5,5′,8′-tetrahydro-2H,6′H-spiro[furan-3,7′-pteridin]-6′-one] |  | IC50 (five hours after addition of compound): 300 to 1000 nM |
| CO[C@H](C)[C@H]1C(=O)Nc2c(C)nc(N[C@H]3C[C@@H](Nc4cnc(C(F)(F)F)cn4)C3)nc2N1C [Compound 647, (S)-7-((R)-1-methoxyethyl)-4,8-dimethyl-2-((cis-3-((5-(trifluoromethyl)pyrazin-2-yl)amino)cyclobutyl)amino)-7,8-dihydropteridin-6(5H)-one] | < 300 |  |
| Cc1nc(NC2CN(C(=O)Cc3ccc(F)c(F)c3)C2)nc2c1NC(=O)[C@H](C(C)C)N2C [Compound 626, (S)-2-((1-(2-(3,4-difluorophenyl)acetyl)azetidin-3-yl)amino)-7-isopropyl-4,8-dimethyl-7,8-dihydropteridin-6(5H)-one] | < 300 |  |
| Cc1nc(N[C@H]2C[C@@H](COc3ccc(F)nc3)C2)nc2c1NC(=O)[C@H](C(C)C)N2C [Compound 574, (S)-2-((cis-3-(((6-fluoropyridin-3-yl)oxy)methyl)cyclobutyl)amino)-7-isopropyl-4,8-dimethyl-7,8-dihydropteridin-6(5H)-one] | < 300 |  |
| COCC1(C)C(=O)Nc2c(C)nc(NC3CN(C(=O)c4cc(F)c(F)c(F)c4)C3)nc2N1C (stereo not shown) [Compound 721, 7-(methoxymethyl)-4,7,8-trimethyl-2-((1-(3,4,5-trifluorobenzoyl)azetidin-3-yl)amino)-7,8-dihydropteridin-6(5H)-one] | 1000 to 5000 |  |
| Cc1nc(NCc2cnn(C[C@H](C)c3ccccc3)c2)nc2c1NC(=O)[C@H](C)N2C [Compound 90, (7S)-4,7,8-trimethyl-2-(((1-((R)-2-phenylpropyl)-1H-pyrazol-4-yl)methyl)amino)-7,8-dihydropteridin-6(5H)-one] | < 300 |  |
| Cc1nc(N[C@@H]2CCc3nn(Cc4ccc(C(F)(F)F)nc4)cc32)nc2c1NC(=O)[C@H](C)N2C [Compound 547, (7S)-4,7,8-trimethyl-2-(((R)-2-((6-(trifluoromethyl)pyridin-3-yl)methyl)-2,4,5,6-tetrahydrocyclopenta[c]pyrazol-4-yl)amino)-7,8-dihydropteridin-6(5H)-one] | 1000 to 5000 |  |
